The text below walks through data of US4894453A, “2-substituted alkoxy-3-substituted-pyrazines” (Toyo Jozo Kabushiki Kaisha, priority 1986, dated 1990).

The test system of experiment [1] is PAF-induced aggregation (rabbit platelet plasma). The experiment can be described thus: Platelet aggregation inhibitory action on PAF-induced aggregation. Format: cell-based. Particulars: Oryctolagus cuniculus, 0.05 h, PAF 10-50 μg/ml, 37° C., 3 min incubation, hydrochloride salt, read-out: inhibition ratio, PAF-induced platelet aggregation.
Experiment [2] relates to blood flow, femoral artery / left back limb. As to the kind of experiment: Vasodilation activity, changes in blood flow in perfused left back limb of anesthetized dog. The class given is in vivo. Particulars: 100 μg into right femoral artery; relative to increased blood flow by 30 μg papaverin intra-arterially = 100%; hydrochloride salt. The protocol: (§1) The pharmacological activity of the present compounds [1] is illustrated below. All the compounds [1] used in the pharmacological tests were tested in the form of the hydrochloride salt thereof.
2. Vasodilation activity:
A dog, pretreated with morphine (1.5 mg/kg, sc) is anesthesized with urethane (450 mg/kg, iv) and α-chloralose (45 mg/kg, iv), and immobilized in the dosal position. Right femoral arterial blood is introduced into a left femoral artery via a perfusion pump, and Sterling's resistance is connected to the exosomatic circulatory system to perfuse blood to a left back limb at constant pressure. The perfusion pressure is set at a value slightly higher than that of the average blood pressure of the animal. Sample (100 μg) dissolved in physiological saline solution is administered to a right femoral artery, and changes in blood flow are measured. Vasodilation activity is measured as a relative activity, by defining as 100% the increased rate of blood flow when 30 μg papaverin is administered intra-arterially. The results are shown in Table 5, where it will be seen that the compounds [1] of the present invention have strong vasodilation activity.

In experiment [3] the test system is PAF-induced aggregation (rabbit platelet plasma). The experiment can be described thus: Platelet aggregation inhibitory action on PAF-induced aggregation. The class given is cell-based. Particulars: Oryctolagus cuniculus, 0.05 h, PAF 10-50 μg/ml, 37° C., 3 min incubation, hydrochloride salt, read-out: inhibition ratio, PAF-induced platelet aggregation. The protocol:
as §1
(§2) 1. Platelet aggregation inhibition:
(§3) Sample solution containing a compound [1] (final concentration 500 or 100 μM) is added to rabbit platelet plasma to which was added 10% by volume of a 3.8% sodium citrate solution, and the mixture is incubated at 37° C. for 3 minutes. A platelet activation factor (PAF, final concentration 10-50 μg/ml) or collagen (final concentration 2.5 μg/ml) is added thereto as an aggregating agent, and platelet aggregation activity is measured with an aggregometer. The results of assays for PAF-induced aggregation are shown in Table 3, and those for collagen-induced aggregation are shown in Table 4, which tables show the strong platelet aggregation inhibitory activity of the compounds [1] of the present invention.
This is another data set of the same source.

For experiment [4], the system named is lipoperoxide generation in rat cerebrum. The experiment can be described thus: Antioxidant activity (inhibition of lipoperoxide generation, method of Stocks et al.). The class given is biochemical. The conditions noted are these: 100 μM; rat cerebrum supernatant, 37° C., 15 min, thiobarbituric acid, 532 nm; hydrochloride salt. The protocol:
as §1
Antioxidant activity is determined according to the method of Stocks et al. [Clin. Sci. Mol. Med., 47: 215 (1974)]. Rat cerebrum is added to ice-cooled 40 mM phosphate saline buffer solution (PBS) (pH 7.4, 4 ml buffer per 1 g cerebrum), homogenized and centrifuged (1000×g, 4° C., 10 min.) to obtain a supernatant solution. The supernatant solution is diluted fivefold with the above ice-cooled PBS solution, and to a 0.9 ml aliquot thereof is added a sample containing a compound [1] (0.1 ml, final concentration 100 μM) dissolved in ethanol. The resultant mixture is incubated at 37° C. for 15 minutes, 35% perchloric acid (0.2 ml) is added, and the mixture is ice-cooled to stop the reaction and centrifuged (1300×g, 4° C., 10 min.). 0.5 ml thiobarbituric acid (5 g/lit. of 50% acetic acid) is added to the supernatant solution (1 ml), so as to measure its absorbancy at 532 nm. The amount of lipoperoxide thus generated is expressed as an amount of malondialdehyde.

The test system of experiment [5] is collagen-induced aggregation (rabbit platelet plasma). As to the kind of experiment: Platelet aggregation inhibitory action on collagen-induced aggregation. Particulars: Oryctolagus cuniculus, 0.05 h, collagen 2.5 μg/ml, 37° C., 3 min incubation, hydrochloride salt, read-out: inhibition ratio, collagen-induced platelet aggregation. Format: cell-based. The protocol:
as §1, §2, §3

`Cc1nc(C)c(OCC(=O)N2CCCCC2)nc1C` [Compound 067]: the inhibition at 300 µM in experiment [1] stood at 53%.
Take `Cc1nc(C)c(OCC(=O)N2CCOCC2)nc1C` [Compound 075]: the vasodilation activity in experiment [2] was 89%.
Regarding `Cc1nc(C)c(OCC(=O)NCCN2CCN(Cc3ccc(Cl)cc3)CC2)nc1C` [Compound 135], the inhibition at 500 µM in experiment [3] (500 μM) came out at 77%. Also, the vasodilation activity in experiment [2] worked out at 242%.
Regarding `Cc1nc(C)c(OCC(=O)NCCN2CCN(Cc3ccccc3)CC2)nc1C` [Compound 136], the inhibition at 100 µM in experiment [3] was 50%. In experiment [2], the vasodilation activity worked out at 204%.
On the same counts, the results for `Cc1nc(C)c(OCC(=O)NCCN2CCN(Cc3ccccc3Cl)CC2)nc1C` [Compound 137] are 76% and 216%.
Regarding `CCc1nc(C)c(C)nc1OC(C(=O)NCCN1CCN(Cc2ccc([N+](=O)[O-])cc2)CC1)c1ccccc1` (stereo not drawn) [Compound 344], the inhibition at 100 µM in experiment [3] was found to be 44%. For the same compound, the “inhibition ratio, lipoperoxide generation (antioxidant activity)” value (from here on “inhibition ratio”) in experiment [4] was found to be 48%.
On to `CCc1nc(C)c(C)nc1OC(C(=O)NCCN1CCCN(Cc2ccc(F)cc2)CC1)c1ccccc1` (stereo not drawn) [Compound 347], for which the inhibition at 100 µM in experiment [3] came out at 59%. Also, the “inhibition ratio” value in experiment [4] is 51%.
With `CCc1nc(C)c(C)nc1OC(C(=O)NCCN1CCCN(Cc2ccc(Cl)cc2)CC1)c1ccccc1` (stereo not drawn) [Compound 348], the inhibition at 100 µM in experiment [3] turned out to be 70%. Moreover, the “inhibition ratio” value in experiment [4] is 62%.
On the same counts, the results for `CCc1nc(C)c(C)nc1OCCN1CCCN(Cc2ccc([N+](=O)[O-])cc2)CC1` [Compound 502] are 81% and 69%.
With `Cc1nc(OCCN2CCCN(Cc3ccc(Cl)cc3)CC2)c(C(C)C)nc1C` [Compound 547], in experiment [5], the inhibition at 100 µM stood at 56%.
For the compound `CCc1nc(OCCN2CCCCC2)c(C(C)C)nc1CC` [Compound 550], the inhibition at 100 µM in experiment [3] came out at 56%; in experiment [5], 85%.
The matching figures for `CCc1nc(CC(C)C)c(OCCN2CCN(Cc3ccccc3)CC2)nc1CC` [Compound 556]: 51% and 40%.
As to `CCCCCc1nc2c(nc1OCCN1CCCN(Cc3ccc(F)cc3)CC1)CCCC2` [Compound 562], in experiment [3], the inhibition at 100 µM came out at 45%. The “inhibition ratio” value in experiment [4] was determined as 65%.
The matching figures for `CCCCCCc1nc2c(nc1OCCN1CCN(c3ccccc3OC)CC1)CCCC2` [Compound 570]: 40% and 65%.
Consider `CCCCCCCCc1nc2c(nc1OCCN1CCN(CCCC)CC1)CCCC2` [Compound 573], for which the inhibition at 100 µM in experiment [3] was 86%; in experiment [5] it was 58%. Besides, the “inhibition ratio” value in experiment [4] turned out to be 56%.
Take `CCCCCCCCCc1nc2c(nc1OCCN1CCN(CCCC)CC1)CCCC2` [Compound 580]: the inhibition at 100 µM in experiment [3] amounted to 94%; in experiment [5] it was 80%. For the same compound, the “inhibition ratio” value in experiment [4] is on record as 77%.
As to `CCCCCCCCCc1nc2c(nc1OCCN1CCN(Cc3ccc(OC)cc3)CC1)CCCC2` [Compound 582], in experiment [5], the inhibition at 100 µM is 58%. Besides, the “inhibition ratio” value in experiment [4] turned out to be 82%.
On the same counts, the results for `CCCCCCCCCCc1nc2c(nc1OCCN1CCOCC1)CCCC2` [Compound 585] are 41% and 62%.
Take `CCCCCCCCCCc1nc2c(nc1OCCN1CCN(CCCC)CC1)CCCC2` [Compound 587]: the inhibition at 100 µM in experiment [3] is 91%; in experiment [5], 79%. Also, in experiment [4], the “inhibition ratio” value was 65%.
Regarding `CCCCCCCCCCc1nc2c(nc1OCCN1CCN(CCO)CC1)CCCC2` [Compound 588], the values for the inhibition at 100 µM in experiment [3] and in experiment [5] were 64% and 78%, respectively. Moreover, the “inhibition ratio” value in experiment [4] is 65%.
As for `CCCCCCCCCCCCc1nc2c(nc1OCCN1CCN(CCCC)CC1)CCCC2` [Compound 595], in experiment [3], the inhibition at 100 µM worked out at 85%. In experiment [4], the “inhibition ratio” value is given as 70%.
On to `CCCCCCCCCCCCCCc1nc2c(nc1OCCN1CCN(CCCC)CC1)CCCC2` [Compound 600], for which, in experiment [3], the inhibition at 100 µM came to 52%. Moreover, the “inhibition ratio” value in experiment [4] was 61%.
